Results taken from US10945972B2, “Particulate materials” (Nektar Therapeutics, priority 2002, dated 2021).
Structures can show the parent of a compound that is named as a salt.

Assay: Aerosol analysis at 60 LPM, Turbospin (Example 11)
Procedure: The aerosol performance of a SEDS™ processed sample of bromocriptine mesylate was assessed in a unit-dose passive inhaler device (Turbospin PH & T (Italy)), at a peak inspiratory flow rate (PFIR) of 28.3 LPM and 60 LPM.

Structure (SMILES): CC(C)C[C@H]1C(=O)N2CCC[C@H]2[C@]2(O)O[C@](NC(=O)[C@@H]3C=C4c5cccc6[nH]c(Br)c(c56)C[C@H]4N(C)C3)(C(C)C)C(=O)N12 [SEDS bromocriptine, bromocriptine mesylate]
- aerodynamic diameter of aerosol particles: 4.2 μm
